Assay results reported in US20190246658A1, “METHODS OF HANDLING PAPAYA” (AGROFRESH INC., priority 2013, published 2019).

What was measured:
Papayas ‘Golden’ [1] = experiment: Example 2 (yellow stage): pulp firmness, internal; format: in vivo, papaya; details: 500 ppb of MCP
Protocol: A similar test to Example 1 but papayas are tested during their yellow stage. Papayas ‘Golden’ were harvested in Linhares—Espírito Santo—Brazil. The fruits were packed in MAP Bags and put in cardboard boxes.
The fruits were first left at room temperature during 3 days to reach yellow maturity stage.
After that the appropriate weight of papayas was placed in each bag after harvest. Bags were placed in the same cardboard boxes used to export the fruits. Papayas then were cold stored at (11° C.) at the Laboratory.
(§1) The Test Protocol that was used was as follows. 18 MAP bags were packed. Each bag held approximately 3.8 kg (8.4 lb) of papayas. One such bag was packed in each cardboard box. Total weight of papayas in MAP bags was approximately 68 kg. Approximately 68 kg of papayas were placed into cardboard boxes identical to those used for the MAP bags.
(§2) The MAP-packaged papayas were packaged as follows: Nine fruits, approximately 3.8 kg were carefully placed into microperforated bags, and the bags were sealed by twisting the open side of the bag, folding down the twisted end, and placing a rubber band around the twisted and folded end of the bag.
All papayas were kept at cold temperature (11° C.) during 26 days and after that the fruits (packed in MAP bags or not) were put in room temperature (22° C.) during 8 days.
After the 3 days for maturation at room temperature, when the papayas had around 5 lbf of average firmness, each treatment set was marked, placed in a hermetical chamber at cold temperature (11° C.). All chambers were of equal size and packed the same way. Treatment was for 12 hr. In the chambers for the 2 “MCP” treatment groups, at the beginning of the treatment period, SmartFresh™ were placed in the chamber. The amount of SmartFresh™ was chosen to achieve the indicated concentration of 1-methylcyclopropene in the atmosphere of the chamber.
Evaluation for skin color and firmness was as follows. Day “zero” was the day the papayas were removed from the chamber and placed in storage.
(§3) For the Pulp Firmness evaluation two measurements were done, one for External Firmness and another for Internal Firmness. For External Firmness, the papayas had the skin removed with a peeler and the pulp firmness was measured with a Firmness Texture Analyzer (FTA) with a probe of 8 mm. For Internal Firmness, the papayas were cut transversally and a measurement close to the center of the fruit was taken with the FTA.

Papayas ‘Golden’ [2] = experiment: Example 1: percentage of fruits with ideal internal pulp firmness (2.5-7.0 lbf); format: in vivo, papaya; details: 100 ppb of MCP, ideal = between 2.5 and 7.0 lbf
Protocol: Papayas ‘Golden’ were harvested in Linhares—Espírito Santo—Brazil. The harvested fruits were packed in MAP Bags and put in cardboard boxes.
The appropriate weight of papayas was placed in each bag after harvest. Bags were placed in the same cardboard boxes used to export the fruits. Papayas then were cold stored at (11° C.) at the Laboratory.
as §1, with “follows. 36” for “follows. 18”, “approximately 137” for “approximately 68”, “Approximately 91” for “Approximately 68”
as §2
All papayas were kept at cold temperature (11° C.) during 27 days and after that the fruits (packed in MAP bags or not) were put in room temperature (22° C.) during 8 days.
One day after harvest, when the papayas had around 25 lbf of average firmness, each treatment set was marked, placed in a hermetical chamber at cold temperature (11° C.). All chambers were of equal size and packed the same way. Treatment was for 12 hours. In the chambers for the 3 “MCP” treatment groups, at the beginning of the treatment period, SmartFresh™ were placed in the chamber. The amount of SmartFresh™ was chosen to achieve the indicated concentration of 1-methylcyclopropene in the atmosphere of the chamber.
as §3, with “measurements where” for “measurements were”
The desirable internal pulp firmness for consumption of papayas is between 2.5 and 7.0 lbf. The percentage of fruits with internal pulp firmness between 2.5 and 7.0 lbf was calculated.

CC1=CC1 [MCP, 1-methylcyclopropene]
Pulp Firmness - Internal (Papayas ‘Golden’ [1]; MAP bag, 26 days at 11° C. then 0 days @ 22° C.): 1.20 lbf | Pulp Firmness - Internal (Papayas ‘Golden’ [1]; MAP bag, 26 days at 11° C. then 4 days @ 22° C.): 0.92 lbf | Pulp Firmness - Internal (Papayas ‘Golden’ [1]; MAP bag, 26 days at 11° C. then 8 days @ 22° C.): 0.88 lbf | Pulp Firmness - Internal (Papayas ‘Golden’ [1]; No Bag, 26 days at 11° C. then 0 days @ 22° C.): 1.21 lbf | Pulp Firmness - Internal (Papayas ‘Golden’ [1]; No Bag, 26 days at 11° C. then 4 days @ 22° C.): 1.55 lbf | Pulp Firmness - Internal (Papayas ‘Golden’ [1]; No Bag, 26 days at 11° C. then 8 days @ 22° C.): 0.95 lbf | Percentage of fruits with ideal internal pulp firmness (Papayas ‘Golden’ [2]; MAP bag, 27 days at 11° C. then 0 days @ 22° C.): 52.38% | Percentage of fruits with ideal internal pulp firmness (Papayas ‘Golden’ [2]; MAP bag, 27 days at 11° C. then 4 days @ 22° C.): 44.44% | Percentage of fruits with ideal internal pulp firmness (Papayas ‘Golden’ [2]; MAP bag, 27 days at 11° C. then 8 days @ 22° C.): 13.88% | Percentage of fruits with ideal internal pulp firmness (Papayas ‘Golden’ [2]; No Bag, 27 days at 11° C. then 0 days @ 22° C.): 1.19% | Percentage of fruits with ideal internal pulp firmness (Papayas ‘Golden’ [2]; No Bag, 27 days at 11° C. then 4 days @ 22° C.): 11.11% | Percentage of fruits with ideal internal pulp firmness (Papayas ‘Golden’ [2]; No Bag, 27 days at 11° C. then 8 days @ 22° C.): 58.33%
